Test results from publication PMC9401487 (Clinical Cancer Research, 2021).
Like-named read-outs stand apart in the source and are kept apart here.

How the values were obtained:
[1] = test system: TP53-mutant triple-negative breast cancer PDX; conditions: cited from earlier work
[2] = test system: pRAD50; test: pRAD50 IHC H-score in paired tumor biopsies; assay type: in vivo, human

C[C@@H]1COCCN1c1cc(C2([S@](C)(=N)=O)CC2)nc(-c2cc[nH]c3nccc2-3)n1 [ceralasertib]
Tumor control ([1]; carboplatin dosed concurrently with ceralasertib on day 2 or 3): growth inhibition rather than tumor control | Antitumor efficacy ([1]; ceralasertib dosed 2 days after carboplatin): tumor control | Antitumor efficacy ([1]; ceralasertib dosed 3 days after carboplatin): tumor regression | pRAD50 expression following treatment ([2]; all four evaluable paired tumor biopsies): clear increases in pRAD50 expression | Increase in pRAD50 expression ([2]; cohort 7 patient, baseline ATM 20%, H-scores of 20–80): 400%
